Measured values taken from patent US20240101958A1, “NOVEL HUMAN ERYTHROID PROGENITOR CELL LINE HIGHLY […] B19 INFECTION AND USES THEREOF” (priority 2020, published 2024).

Legend:
B19 = assay: Production of B19 genome copies equivalent per mL of cell culture, qPCR; type: cell-based, Human Parvovirus B19; conditions: UT7/Epo-E2 cell line after chloroquine treatment, 96 h post infection
Experimental: Cells (day 8 CD36^+EPC, UT7/Epo-S1, UT7/Epo-STI and UT7/Epo-E2) were inoculated with B19. 24 h after inoculation (24 hpi), cells were washed. 3 days later (96 hpi), supernatant was collected, DNA was isolated and B19 DNA was quantified by qPCR according to a B19 DNA standard (GenBank accession no. AY386330). Results are means±SD of 3 independent experiments. For CD36+ EPC, results are means±SD of three day-8 erythroid culture from CD34+ hematopoietic stem cells isolated from 3 different umbilical cord blood.
B19 genome production (FIG. 12) and transcription (FIG. 13) was evaluated at 96h post infection in CD36+EPC cells (day 8) and UT7 cell lines with or without addition of chloroquine (FIG. 13A and B). 96 h post infection, DNA was extracted from an aliquot of 1 mL of cell culture and RNA from cell pellets. B19 genome production was evaluated by qPCR and genome equivalent (GEq)/mL was calculated according to a B19 genome calibration curve. Transcription was analysed by RT-qPCR as previously described. […] UT7/Epo-E2 cell line presents the highest quantity of B19 genome equivalent produced, with at least 7.65×10^7 GEq/mL after chloroquine treatment. […]

B19V = B19V infection of hematopoietic cell lines, VP2 mRNA by RT-qPCR normalized to beta-actin; conditions: for decrease of B19V infection by a factor: UT7/Epo-STI cells treated two days before B19V infection (JQ1 0.5 μM, TGF-β 2 ng/mL), 72 h post-inoculation
Experimental: Three distinct UT-7/Epo cell lines were used: 1) UT-7/Epo-S1, a subclone of UT-7/Epo (16), was obtained from Dr Kazuo Sugamura (Tohoku University Graduate School of Medicine, Japan). 2) UT-7/Epo and UT7/Epo-Cl3, a subclone isolated from UT-7/Epo3) UT7/Epo-STI cells were derived from UT-7/GM cell line and were maintained at low passage, with stringency for erythroid features. UT-7 cells were maintained at 37° C., under an atmosphere containing 5% CO2, in alpha minimum essential medium (αMEM) supplemented with 10% fetal calf serum (FCS), 2 mM L-glutamine (Hyclone), 100 U/mL penicillin, 100 μg/mL streptomycin and 2 U/mL recombinant human Erythropoietin (rh-Epo, Euromedex, RC213-15). Where specified, 0.5 μM JQ1 (Sigma-Aldrich, France) or 2 ng/mL TGF-β (Peprotech, France) was added to the culture medium for two days before B19V infection. TF1 (12) and TF1-ER erythroleukemia cells were maintained in Roswell Park Memorial Institute (RPM!) 1640 medium supplemented with 10% FCS, 2 mM L-glutamine (Hyclone), 100 U/mL penicillin, 100 μg/mL streptomycin and 2 U/mL rh-Epo or 5 ng/mL human granulocyte macrophage colony-stimulating factor (GM-CSF, Peprotech).
Plasma samples containing high titers of infectious B19V from asymptomatic blood donors were provided by the Etablissement Français du Sang (EFS). Plasma samples were determined to be negative for both B19V IgG and IgM, with a viral titer of 10^11 B19V DNA genome equivalent (ge)/mL. Briefly, cells were maintained in exponential growth condition by dilution to 0.3×10^6 cells/mL the day before infection. On the day of infection, cells were washed and diluted in FCS-free medium without Epo, at a density of 10·10^6 cells/mL. B19V inoculation was carried out in a 96-well plate, with 10 μL of cell suspension (10^5 cells) and 50 μL of a 100-fold dilution of B19V plasma (10^9 ge/mL), corresponding to a mean of 500 ge/cell. The cells were then incubated at 4° C. for 2 h, and then at 37° C., for 1 h, under an atmosphere containing 5% CO2. We added 140 μL of complete medium and maintained the cells in culture until 72 h. Where specified, we added chloroquine (CQ) to the complete medium, at a final concentration of 25 μM. Cell viability was assessed by trypan blue exclusion test (0.4% in PBS, Thermo Fisher Scientific), by counting blue and total cells under a microscope, with a hemocytometer. After correction for the dilution factor, viability was calculated as follows: % viable cells=[1−(number of blue cells/number of total cell)]×100. At 24, 48 or 72 h post infection (hpi), cells were centrifuged (8 mins at 300×g), supernatants were discarded and cell pellets were frozen at −80° C. until analysis.
Total RNA was extracted from cell pellets with the RNeasy 96 QIAcubeHT kit and a QIAcubeHT machine, according to the manufacturer's instructions. The extraction step included DNase treatment for 15 minutes, to decrease the risk of genomic DNA amplification during PCR. Real-time reverse transcription-quantitative PCR (RT-qPCR) was performed with the Taqman Fast Virus one-step PCR kit (Applied Biosystems). […] For control and normalization with respect to the number of cells, we used a duplex strategy. […] Reactions were performed on 5 μL of extracted RNA with the QuantStudio 3 PCR system and. The reaction began with reverse transcription at 48° C. for 15 mins, followed by inactivation of the reverse transcriptase and activation of the polymerase by heating at 95° C. for 10 mins, followed by 40 cycles of 15s at 95° C. and 30 s at 60° C. […]

Compound | quantity of B19 genome equivalent produced (B19) | VP2 expression (B19V; TF1 and TF1-ER cells, under GM-CSF or Epo, with or without chloroquine treatment) | enhancement of UT7/Epo-S1 sensitivity to B19V (relative B19 mRNA expression) (B19V; UT7/Epo-S1 cells, chloroquine 25 μM, 72 h post-infection) [fold] | relative B19 mRNA level (VP2), UT7/Epo-S1 without chloroquine set to 1 (B19V; UT7/Epo-STI cells + chloroquine 25 μM, 72 h post-infection) | decrease of B19V infection by a factor (B19V)
CCN(CC)CCCC(C)Nc1ccnc2cc(Cl)ccc12 (racemic) [Chloroquine, (RS)-N-(7-chloroquinolin-4-yl)-N,N-diéthyl-pentane-1,4-diamine] | at least 7.65×10^7 GEq/mL | undetectable | 5 | 25.8+4.9 | 
Cc1sc2c(c1C)C(c1ccc(Cl)cc1)=N[C@@H](CC(=O)OC(C)(C)C)c1nnc(C)n1-2 [JQ1] |  |  |  |  | about 10
TGF-B: hormonal induction of erythroid differentiation (Peprotech) |  |  |  |  | about 10
